In US20050245577A1, “Drug for kidney failure containing oxaluric acid derivative” (priority 2002, published 2005):

System: SD-strain rats
Assay: Single dose toxicity test
Assay type: in vivo
Details: intravenous single dose 75 to 600 mg/kg, even at 600 mg/kg, 5 males and 5 females
Procedure: 5-Methyloxaluric acid was intravenously administered to SD-strain rats (6 weeks age, 5 males and 5 females) at the dose of 75 to 600 mg/kg.

CNC(=O)NC(=O)C(=O)O [5-Methyloxaluric acid, 5-methyloxaluric acid]
death: no death
